Key:
lipoamide = compound: NC(=O)CCCCC1CCSS1 [lipoamide]; test: thermal stability z-score vs DMSO; higher = more thermally stabilized by treatment; conditions: HeLa, lipoamide concentration 100 µM
Description: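 Cellular thermal proteome profiling in HeLa cells. Cells were treated with 100 µM lipoamide for 1 h, with or without 1 mM arsenate for a further 1 h, then heated to ten temperatures (37-66.3 °C), and soluble protein was quantified by TMT mass spectrometry relative to 0.1% DMSO controls. The thermal stability score (sum of log2 fold changes minus the abundance score) was transformed to a z-score; mean of n = 3 experiments.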

potassium arsenate = compound: O=[As]([O-])(O)O.[K+] [potassium arsenate]; test: as above; conditions: HeLa; arsenate concentration 1 mM
Description: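 Cellular thermal proteome profiling in HeLa cells treated with 1 mM arsenate for 1 h (DMSO pretreatment), heated to ten temperatures (37-66.3 °C). Soluble protein was quantified by TMT mass spectrometry relative to DMSO controls; the thermal stability score was transformed to a z-score; mean of n = 3 experiments.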

[1] = arsenate co-treatment: 1 mM arsenate 1 h
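Note: each temperature applied for 3 min, abundance score taken as mean log2 fold change at the two lowest temperatures, z-score obtained by mean subtraction and division by SD.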

Chain of UniProt Q5T2E6 (Q5T2E6 whole entry): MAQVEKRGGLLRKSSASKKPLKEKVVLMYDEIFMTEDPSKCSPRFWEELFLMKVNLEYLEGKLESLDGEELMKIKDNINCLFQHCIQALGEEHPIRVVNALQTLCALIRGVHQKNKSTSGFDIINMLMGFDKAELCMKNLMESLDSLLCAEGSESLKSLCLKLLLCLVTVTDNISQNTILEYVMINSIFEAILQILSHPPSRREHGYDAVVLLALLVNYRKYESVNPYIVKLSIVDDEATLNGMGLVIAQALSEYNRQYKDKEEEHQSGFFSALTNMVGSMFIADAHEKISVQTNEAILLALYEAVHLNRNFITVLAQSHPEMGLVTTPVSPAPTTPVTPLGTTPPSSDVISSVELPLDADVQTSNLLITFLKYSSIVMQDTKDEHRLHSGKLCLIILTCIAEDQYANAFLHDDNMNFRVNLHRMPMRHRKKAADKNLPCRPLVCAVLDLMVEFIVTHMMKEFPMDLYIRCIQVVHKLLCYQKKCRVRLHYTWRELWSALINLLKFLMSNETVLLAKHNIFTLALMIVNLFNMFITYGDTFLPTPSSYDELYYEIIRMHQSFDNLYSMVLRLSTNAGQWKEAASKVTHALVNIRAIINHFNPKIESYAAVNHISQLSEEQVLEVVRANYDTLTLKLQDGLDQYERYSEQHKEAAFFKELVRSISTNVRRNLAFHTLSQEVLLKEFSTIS
Chain of UniProt P48067 (P48067 whole entry): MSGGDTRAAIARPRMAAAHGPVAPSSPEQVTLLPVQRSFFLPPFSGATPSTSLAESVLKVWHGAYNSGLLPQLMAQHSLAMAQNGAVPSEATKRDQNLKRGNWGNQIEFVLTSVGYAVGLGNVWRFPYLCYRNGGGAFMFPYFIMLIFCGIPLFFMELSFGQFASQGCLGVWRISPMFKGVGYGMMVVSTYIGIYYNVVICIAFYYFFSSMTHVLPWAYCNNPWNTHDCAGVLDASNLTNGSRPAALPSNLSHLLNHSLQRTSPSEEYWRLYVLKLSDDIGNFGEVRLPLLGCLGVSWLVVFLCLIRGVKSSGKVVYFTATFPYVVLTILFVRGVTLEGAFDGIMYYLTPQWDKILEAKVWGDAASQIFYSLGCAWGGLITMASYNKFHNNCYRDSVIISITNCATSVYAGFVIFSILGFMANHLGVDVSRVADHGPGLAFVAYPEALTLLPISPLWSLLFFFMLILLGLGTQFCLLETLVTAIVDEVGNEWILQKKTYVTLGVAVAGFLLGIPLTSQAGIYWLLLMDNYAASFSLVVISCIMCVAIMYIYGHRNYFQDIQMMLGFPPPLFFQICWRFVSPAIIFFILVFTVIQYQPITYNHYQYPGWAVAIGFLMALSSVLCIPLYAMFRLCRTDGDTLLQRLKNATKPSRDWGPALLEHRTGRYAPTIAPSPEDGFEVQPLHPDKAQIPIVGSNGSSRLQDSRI
Chain of UniProt Q9H814 (Q9H814 whole entry): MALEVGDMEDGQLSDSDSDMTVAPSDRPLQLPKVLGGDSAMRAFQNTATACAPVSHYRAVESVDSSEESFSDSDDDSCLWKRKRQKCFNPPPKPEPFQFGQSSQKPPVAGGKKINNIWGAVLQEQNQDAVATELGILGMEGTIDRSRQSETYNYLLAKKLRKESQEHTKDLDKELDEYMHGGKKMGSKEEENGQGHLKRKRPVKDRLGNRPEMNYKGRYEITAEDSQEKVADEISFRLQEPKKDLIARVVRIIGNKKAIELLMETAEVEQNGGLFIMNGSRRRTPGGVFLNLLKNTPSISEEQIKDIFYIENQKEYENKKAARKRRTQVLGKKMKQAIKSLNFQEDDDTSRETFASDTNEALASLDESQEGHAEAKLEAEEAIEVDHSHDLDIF
Chain of UniProt Q3YEC7 (Q3YEC7 whole entry): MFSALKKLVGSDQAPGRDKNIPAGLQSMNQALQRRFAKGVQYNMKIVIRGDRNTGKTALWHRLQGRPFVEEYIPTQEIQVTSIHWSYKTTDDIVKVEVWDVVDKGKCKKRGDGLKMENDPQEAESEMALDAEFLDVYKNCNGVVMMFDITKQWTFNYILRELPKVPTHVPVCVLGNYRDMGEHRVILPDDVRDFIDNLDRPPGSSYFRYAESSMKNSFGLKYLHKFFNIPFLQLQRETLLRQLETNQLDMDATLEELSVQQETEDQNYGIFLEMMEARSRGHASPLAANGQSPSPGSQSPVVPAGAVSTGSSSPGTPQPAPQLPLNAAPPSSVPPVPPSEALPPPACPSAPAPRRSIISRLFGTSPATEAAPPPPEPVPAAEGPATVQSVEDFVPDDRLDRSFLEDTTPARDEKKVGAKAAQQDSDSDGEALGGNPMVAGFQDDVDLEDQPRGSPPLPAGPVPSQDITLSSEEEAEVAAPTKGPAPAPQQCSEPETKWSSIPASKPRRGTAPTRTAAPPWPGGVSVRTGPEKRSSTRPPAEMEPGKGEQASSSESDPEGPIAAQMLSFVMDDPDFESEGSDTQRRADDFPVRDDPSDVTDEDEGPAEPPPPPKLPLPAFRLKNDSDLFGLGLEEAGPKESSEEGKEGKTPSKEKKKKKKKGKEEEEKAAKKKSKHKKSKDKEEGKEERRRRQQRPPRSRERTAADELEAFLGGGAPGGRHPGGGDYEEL
Chain of UniProt Q9UBI6 (Q9UBI6 whole entry): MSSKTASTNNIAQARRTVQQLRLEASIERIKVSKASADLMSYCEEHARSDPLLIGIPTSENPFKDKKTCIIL
Chain of UniProt P13073 (P13073 whole entry): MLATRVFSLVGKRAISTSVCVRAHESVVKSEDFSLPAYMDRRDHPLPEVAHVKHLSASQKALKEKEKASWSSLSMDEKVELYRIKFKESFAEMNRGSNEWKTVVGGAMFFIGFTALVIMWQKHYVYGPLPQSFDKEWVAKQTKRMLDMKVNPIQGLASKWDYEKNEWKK
Chain of UniProt Q99798 (Q99798 whole entry): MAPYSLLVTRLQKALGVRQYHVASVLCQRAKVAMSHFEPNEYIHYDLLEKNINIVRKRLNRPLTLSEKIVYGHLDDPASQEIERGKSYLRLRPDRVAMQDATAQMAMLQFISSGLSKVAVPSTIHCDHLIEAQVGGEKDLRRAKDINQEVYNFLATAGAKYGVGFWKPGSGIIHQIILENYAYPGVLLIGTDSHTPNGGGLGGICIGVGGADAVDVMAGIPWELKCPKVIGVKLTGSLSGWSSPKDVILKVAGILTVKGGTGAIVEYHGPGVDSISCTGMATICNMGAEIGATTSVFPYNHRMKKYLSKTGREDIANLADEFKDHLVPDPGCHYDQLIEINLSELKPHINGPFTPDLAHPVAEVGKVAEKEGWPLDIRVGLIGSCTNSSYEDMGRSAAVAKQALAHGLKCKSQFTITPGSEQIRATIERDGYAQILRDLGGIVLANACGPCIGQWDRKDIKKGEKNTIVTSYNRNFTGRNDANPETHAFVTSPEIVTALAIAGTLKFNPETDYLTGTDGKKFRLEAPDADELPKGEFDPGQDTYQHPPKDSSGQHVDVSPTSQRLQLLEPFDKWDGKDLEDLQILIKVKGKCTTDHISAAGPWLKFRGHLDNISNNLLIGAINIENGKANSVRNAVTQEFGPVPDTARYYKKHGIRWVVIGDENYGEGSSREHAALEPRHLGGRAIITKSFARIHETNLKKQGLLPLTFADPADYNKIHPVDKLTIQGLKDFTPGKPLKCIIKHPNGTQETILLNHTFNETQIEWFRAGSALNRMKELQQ
Chain of UniProt Q9UER7 (Q9UER7 whole entry): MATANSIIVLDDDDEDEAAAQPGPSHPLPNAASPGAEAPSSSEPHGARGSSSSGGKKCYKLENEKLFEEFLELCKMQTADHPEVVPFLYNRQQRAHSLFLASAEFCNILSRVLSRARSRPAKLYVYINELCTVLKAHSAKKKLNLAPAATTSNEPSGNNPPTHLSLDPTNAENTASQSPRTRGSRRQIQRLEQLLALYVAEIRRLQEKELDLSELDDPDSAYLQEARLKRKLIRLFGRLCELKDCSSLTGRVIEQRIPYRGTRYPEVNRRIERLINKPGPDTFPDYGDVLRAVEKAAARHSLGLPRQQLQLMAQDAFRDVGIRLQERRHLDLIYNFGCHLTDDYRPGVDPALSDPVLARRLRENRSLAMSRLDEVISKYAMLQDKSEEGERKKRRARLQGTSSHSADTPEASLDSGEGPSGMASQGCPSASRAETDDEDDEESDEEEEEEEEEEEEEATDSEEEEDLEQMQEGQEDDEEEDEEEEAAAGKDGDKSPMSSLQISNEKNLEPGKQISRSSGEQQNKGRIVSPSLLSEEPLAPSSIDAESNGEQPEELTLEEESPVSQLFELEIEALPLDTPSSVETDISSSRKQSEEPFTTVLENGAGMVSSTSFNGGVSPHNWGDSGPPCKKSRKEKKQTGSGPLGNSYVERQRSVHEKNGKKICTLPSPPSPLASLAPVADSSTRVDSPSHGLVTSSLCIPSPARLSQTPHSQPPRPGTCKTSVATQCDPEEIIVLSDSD
Chain of UniProt Q9Y3E0 (Q9Y3E0 whole entry): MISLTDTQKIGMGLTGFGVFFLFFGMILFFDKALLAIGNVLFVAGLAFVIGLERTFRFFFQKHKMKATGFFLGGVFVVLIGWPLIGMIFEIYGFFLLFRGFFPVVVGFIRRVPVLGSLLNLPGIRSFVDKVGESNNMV
Chain of UniProt Q9H0U4 (Q9H0U4 whole entry): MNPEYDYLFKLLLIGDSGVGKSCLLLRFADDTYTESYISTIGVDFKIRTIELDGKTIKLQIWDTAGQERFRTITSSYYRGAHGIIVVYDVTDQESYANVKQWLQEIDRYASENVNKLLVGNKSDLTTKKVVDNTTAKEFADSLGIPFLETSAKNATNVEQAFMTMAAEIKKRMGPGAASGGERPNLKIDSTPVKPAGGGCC
Chain of UniProt Q9UPY8 (Q9UPY8 whole entry): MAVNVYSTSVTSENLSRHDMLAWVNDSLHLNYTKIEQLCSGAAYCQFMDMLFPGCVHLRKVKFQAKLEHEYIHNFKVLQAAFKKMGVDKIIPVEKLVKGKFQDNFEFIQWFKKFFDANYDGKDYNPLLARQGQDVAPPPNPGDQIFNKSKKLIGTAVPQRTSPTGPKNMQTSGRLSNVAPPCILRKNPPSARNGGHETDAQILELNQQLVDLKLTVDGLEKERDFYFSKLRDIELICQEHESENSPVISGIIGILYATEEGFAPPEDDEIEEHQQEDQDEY

Row | Target | thermal stability z-score (lipoamide; [1]) | thermal stability z-score (lipoamide; arsenate co-treatment: none) | thermal stability z-score (potassium arsenate)
1 | DNAJC6 (UniProt O75061) | 0.617 | 0.625 | 0.413
2 | SLC6A9 (UniProt P48067) | -0.26 | -0.8 | -0.636
3 | DCAF12 (UniProt Q5T6F0) | 0.118 | 0.0205 | 0.154
4 | CDK4 (UniProt P11802) | 1.15 | 1.03 | 0.783
5 | APPL1 (UniProt Q9UKG1) | -0.333 | 0.107 | 1.2
6 | RABL6 (UniProt Q3YEC7) | -0.678 | -0.754 | -0.246
7 | PRKAR2A (UniProt P13861) | 0.114 | 0.239 | 0.904
8 | ACO2 (UniProt Q99798) | -0.488 | -0.402 | -1.08
9 | NUP98 (UniProt P52948) | -0.415 | -0.292 | 0.214
10 | PKN2 (UniProt Q16513) | 0.0683 | 0.467 | 0.144
11 | BZW1 (UniProt Q7L1Q6) | 0.452 | 0.578 | 0.483
12 | APP (UniProt P05067) | -1.82 | -1.75 | 0.137
13 | NRBF2 (UniProt Q96F24) | 0.638 | 0.117 | -0.0833
14 | NARS (UniProt O43776) | -0.596 | -0.292 | 1.17
15 | FBXO38 (UniProt Q6PIJ6) | 0.0679 | -0.115 | -0.981
16 | GIPC3 (UniProt Q8TF64) | -0.481 | -0.0967 | -0.214
17 | RAB1B (UniProt Q9H0U4) | 0.238 | 0.549 | 0.196
18 | DAXX (UniProt Q9UER7) | -0.0224 | -0.149 | -0.391
19 | OLR1 (UniProt P78380) | -0.828 | -0.797 | 0.938
20 | ERAP1 (UniProt Q9NZ08) | -2.65 | -2.68 | 0.97
21 | GNG12 (UniProt Q9UBI6) | 1.21 | 1.3 | 0.329
22 | PHAX (UniProt Q9H814) | 0.329 | 0.358 | 0.321
23 | DFNA5 (UniProt O60443) | 0.218 | 0.152 | 0.523
24 | WRAP53 (UniProt Q9BUR4) | -0.113 | -0.15 | -0.337
25 | PFAS (UniProt O15067) | -0.279 | 0.208 | -1.25
26 | AGMAT (UniProt Q9BSE5) | 0.292 | 0.565 | 0.92
27 | RCOR1 (UniProt Q9UKL0) | 1.01 | 0.999 | -0.739
28 | NPC1 (UniProt O15118) | -0.389 | -0.182 | 0.0121

Row | Target | thermal stability z-score (lipoamide; [1]) | thermal stability z-score (lipoamide; arsenate co-treatment: none) | thermal stability z-score (potassium arsenate)
29 | ANGEL2 (UniProt Q5VTE6) | -0.111 | -0.19 | -0.0197
30 | ERLIN2 (UniProt O94905) | -1.05 | -0.752 | -0.0487
31 | KPNA6 (UniProt O60684) | -0.328 | -0.314 | 0.446
32 | PRDX4 (UniProt Q13162) | 0.155 | 0.76 | 0.674
33 | MAPRE3 (UniProt Q9UPY8) | 0.142 | -0.216 | -0.102
34 | MED16 (UniProt Q9Y2X0) | -0.0673 | 0.0989 | -0.0825
35 | RWDD4 (UniProt Q6NW29) | -0.526 | -0.0479 | 0.261
36 | IKBKG (UniProt Q9Y6K9) | -0.275 | -0.162 | -0.992
37 | SMPD2 (UniProt O60906) | -0.297 | -0.186 | -0.382
38 | METAP2 (UniProt P50579) | 0.0427 | 0.326 | 0.409
39 | SBNO1 (UniProt A3KN83) | 0.158 | 0.686 | 0.146
40 | TRIM65 (UniProt Q6PJ69) | -0.203 | -0.225 | -0.189
41 | KATNA1 (UniProt O75449) | -0.664 | 0.155 | -0.539
42 | GLT8D2 (UniProt Q9H1C3) | -1.22 | -0.83 | -0.0179
43 | GOLT1B (UniProt Q9Y3E0) | 0.0321 | 0.0691 | -0.117
44 | STIM2 (UniProt Q9P246) | -0.102 | -0.0704 | -0.103
45 | NOLC1 (UniProt Q14978) | 0.36 | 0.113 | -0.695
46 | FAM32A (UniProt Q9Y421) | 0.832 | 0.827 | 0.375
47 | C10ORF76 (UniProt Q5T2E6) | -0.9 | 0.306 | 0.613
48 | CBX3 (UniProt Q13185) | 0.366 | 0.43 | 1.76
49 | SMYD5 (UniProt Q6GMV2) | -0.19 | -0.177 | 0.224
50 | COX4I1 (UniProt P13073) | 0.239 | 0.296 | 0.514
51 | UBE2S (UniProt Q16763) | 0.862 | 0.191 | 0.161
52 | MED7 (UniProt O43513) | -0.0337 | -0.104 | -0.328
53 | RDH10 (UniProt Q8IZV5) | 0.347 | 0.244 | 0.115
54 | CASP8 (UniProt Q14790) | -2.33 | -0.106 | -0.648
55 | TAX1BP1 (UniProt Q86VP1) | -0.152 | 0.411 | 0.997
